Measured values reported in article PMC3923112, “A non-radioactive method for measuring Rubisco activase activity in the presence of variable ATP: ADP ratios, including modifications for measuring the activity and activation state of Rubisco” (Photosynthesis Research, 2014).

Columns and labels:
Assay type in all cases: biochemical
Arabidopsis β-RCA = target: T1, Arabidopsis β-RCA (Arabidopsis thaliana, UniProt P10896); test: continuous coupled Rubisco activation assay (dPGM, enolase, PEP carboxylase, malate dehydrogenase; NADH, A340); conditions: ADP plus ATP 5 mM total at ADP:ATP 0.33; tobacco Rubisco ER form not restated for this set; pH 8, 30 °C, 10 mM MgCl2
T1 construct: recombinant, expressed in Escherichia coli and purified
T1 sequence (P10896 59-446 isoform P10896-2): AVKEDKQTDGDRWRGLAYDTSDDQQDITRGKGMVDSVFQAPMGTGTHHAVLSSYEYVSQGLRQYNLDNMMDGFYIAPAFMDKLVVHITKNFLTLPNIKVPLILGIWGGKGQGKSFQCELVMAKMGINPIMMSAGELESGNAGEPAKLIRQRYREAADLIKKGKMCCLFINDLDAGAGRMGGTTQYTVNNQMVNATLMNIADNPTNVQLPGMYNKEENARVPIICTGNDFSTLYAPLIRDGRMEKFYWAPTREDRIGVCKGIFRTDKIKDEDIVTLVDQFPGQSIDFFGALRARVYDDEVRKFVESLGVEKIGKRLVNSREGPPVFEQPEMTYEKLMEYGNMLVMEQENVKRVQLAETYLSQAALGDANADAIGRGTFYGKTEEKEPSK

[1] = target: T2, tobacco Rubisco (wild-type) (Nicotiana tabacum, UniProt P00876); test: continuous coupled 3-PGA formation assay (NADH, A340); conditions: ECM form, 0.5 or 2 mM RuBP, 10 mM NaHCO3, 10 mM MgCl2, 5 mM ATP, pH 8, 30 °C; RuBP also inhibits as tight ER complex
T2 construct: gene rbcL; native, purified from tobacco leaves; converted to ER form or carbamylated ECM form; with Ribulose bisphosphate carboxylase small subunit, chloroplastic

[2] = target: T3, His-tagged modified Rubisco (Nicotiana tabacum, UniProt P00876); test: as above; conditions: ECM form, 0.5 or 2 mM RuBP, 10 mM NaHCO3, 10 mM MgCl2, 5 mM ATP, pH 8, 30 °C; RuBP also inhibits as tight ER complex
T3 construct: gene rbcL; six histidines added to the C-terminus of the large subunit; from transgenic tobacco plants; with Ribulose bisphosphate carboxylase small subunit, chloroplastic
T3 sequence (P69249 58-180, other chains not shown): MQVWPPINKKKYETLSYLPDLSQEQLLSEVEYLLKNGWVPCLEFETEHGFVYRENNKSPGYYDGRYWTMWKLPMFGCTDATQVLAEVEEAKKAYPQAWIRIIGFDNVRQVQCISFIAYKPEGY

T2 sequence (P69249 58-180, other chains not shown): as above

| SMILES | % inhibition at 0.33 ADP:ATP (Arabidopsis β-RCA) [%] | continuous coupled 3-PGA formation assay (NADH, A340) [1] | continuous coupled 3-PGA formation assay (NADH, A340) [2] |
| --- | --- | --- | --- |
| Nc1ncnc2c1ncn2[C@@H]1O[C@H](COP(=O)(O)OP(=O)(O)O)[C@@H](O)[C@H]1O [ADP] | 25 | – | – |
| O=C(COP(=O)(O)O)[C@H](O)[C@H](O)COP(=O)(O)O [RuBP] | – | specific activity of the ECM form of wild-type and modified Rubisco | specific activity of the ECM form of wild-type and modified Rubisco |
